According to patent publication US7396837B2, “Antitumoral analogs of lamellarins” (Pharma Mar, S.A.U., priority 2002, dated 2008):

What was measured:
Format in all cases: cell-based
[1] = tested on: K-562; assay: SRB colorimetric cell growth inhibition assay, K-562; details: Homo sapiens, K562, K-562
Outline: (§1)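 Growth inhibition (GI), cytostatic total growth inhibition (TGI) and cytotoxic cell-kill (LC) parameters were calculated from SRB-stained cultures held under constant compound exposure, triplicates averaged.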

[2] = tested on: A-549; assay: SRB colorimetric cell growth inhibition assay, A-549; details: Homo sapiens, A549, A-549
Outline: as §1

[3] = tested on: SK-MEL-28; assay: SRB colorimetric cell growth inhibition assay, SK-MEL-28; details: Homo sapiens, SK-MEL-28, MEL-28
Outline: as §1

[4] = tested on: HT-29; assay: SRB colorimetric cell growth inhibition assay, HT-29; details: Homo sapiens
Outline: as §1

[5] = tested on: LoVo; assay: SRB colorimetric cell growth inhibition assay, LoVo; details: Homo sapiens
Outline: as §1

[6] = tested on: LoVo-Dox; assay: SRB colorimetric cell growth inhibition assay, LoVo-Dox (MDR); details: Homo sapiens, LOVO-DOX
Outline: as §1

[7] = tested on: DU-145; assay: SRB colorimetric cell growth inhibition assay, DU-145; details: Homo sapiens
Outline: as §1

[8] = tested on: LNCaP; assay: SRB colorimetric cell growth inhibition assay, LNCaP; details: Homo sapiens, LNCaP, LN-caP
Outline: as §1

[9] = tested on: SK-BR-3; assay: SRB colorimetric cell growth inhibition assay, SK-BR-3; details: Homo sapiens
Outline: as §1

[10] = tested on: IGROV; assay: SRB colorimetric cell growth inhibition assay, IGROV; details: Homo sapiens, IGROV
Outline: as §1

[11] = tested on: IGROV-ET; assay: SRB colorimetric cell growth inhibition assay, IGROV-ET (ET-743 resistant); details: Homo sapiens, IGROV-ET
Outline: as §1

[12] = tested on: PANC-1; assay: SRB colorimetric cell growth inhibition assay, PANC-1; details: Homo sapiens
Outline: as §1

[13] = tested on: SKOV-3; assay: SRB colorimetric cell growth inhibition assay, SKOV-3; details: Homo sapiens
Outline: (§2)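 Sulforhodamine B colorimetric assay of cell growth and viability, mean ± SD of triplicate wells. Parameters derived: GI (growth inhibition), TGI (total growth inhibition, cytostatic) and LC (cell killing, cytotoxic).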

[14] = SRB colorimetric cell growth inhibition assay, H-MEC-1; details: human; H-MEC-1; cell killing (cytotoxic effect); read-out: LC50 H-MEC-1
Outline: as §2

[15] = tested on: H-MEC-1; assay: as above; details: Homo sapiens, HMEC-1, H-MEC-1
Outline: as §2

COc1cc(-c2c3n(c4c(=O)oc5cc(OC(=O)[C@H](Cc6c[nH]c7ccccc67)NC(=O)OC(C)(C)C)c(OC)cc5c24)CCc2cc(OC(=O)[C@H](Cc4c[nH]c5ccccc45)NC(=O)OC(C)(C)C)c(OC)cc2-3)ccc1OC(=O)[C@H](Cc1c[nH]c2ccccc12)NC(=O)OC(C)(C)C [Compound 29]
GI50 ([1]; GI=growth inhibition, read-out: GI50 K-562): 0.481 µM
CC50 ([1]; LC=cell killing (cytotoxic effect), read-out: LC50 K-562): 7.35 µM
IC (TGI) ([1]; TGI=total growth inhibition (cytostatic effect), read-out: TGI K-562): 3.46 µM
GI50 ([2]; GI=growth inhibition, read-out: GI50 A-549): 1.73 µM
CC50 ([2]; LC=cell killing (cytotoxic effect), read-out: LC50 A-549): 7.35 µM
IC (TGI) ([2]; TGI=total growth inhibition (cytostatic effect), read-out: TGI A-549): 3.63 µM
GI50 ([3]; GI=growth inhibition, read-out: GI50 MEL-28): 1.55 µM
CC50 ([3]; cell killing (cytotoxic effect), read-out: LC50 MEL-28): 6.45 µM
IC (TGI) ([3]; total growth inhibition (cytostatic effect), read-out: TGI MEL-28): 3.17 µM
CC50 ([4]; HT-29, HT-29, LC=cell killing (cytotoxic effect), read-out: LC50 HT-29): 7.35 µM
GI50 ([4]; HT-29, GI=growth inhibition, read-out: GI50 HT-29): 1.84 µM
IC (TGI) ([4]; HT-29, TGI=total growth inhibition (cytostatic effect), read-out: TGI HT-29): 5.08 µM
CC50 ([5]; LoVo, LC=cell killing (cytotoxic effect), read-out: LC50 LOVO): 7.35 µM
GI50 ([5]; LOVO, GI=growth inhibition, read-out: GI50 LOVO): 2.91 µM
IC (TGI) ([5]; LOVO, TGI=total growth inhibition (cytostatic effect), read-out: TGI LOVO): 7.35 µM
GI50 ([6]; GI=growth inhibition, read-out: GI50 LOVO-DOX): 7.35 µM
CC50 ([6]; LC=cell killing (cytotoxic effect), read-out: LC50 LOVO-DOX): 7.35 µM
IC (TGI) ([6]; TGI=total growth inhibition (cytostatic effect), read-out: TGI LOVO-DOX): 7.35 µM
CC50 ([7]; DU-145, DU-145, cell killing (cytotoxic effect), read-out: LC50 DU-145): 3.9 µM
GI50 ([7]; DU-145, GI=growth inhibition, read-out: GI50 DU-145): 0.198 µM
IC (TGI) ([7]; DU-145, total growth inhibition (cytostatic effect), read-out: TGI DU-145): 0.44 µM
GI50 ([8]; GI=growth inhibition, read-out: GI50 LN-caP): 0.0704 µM
CC50 ([8]; cell killing (cytotoxic effect), read-out: LC50 LN-caP): 0.396 µM
IC (TGI) ([8]; total growth inhibition (cytostatic effect), read-out: TGI LN-caP): 0.169 µM
CC50 ([9]; SK-BR-3, SK-BR-3, cell killing (cytotoxic effect), read-out: LC50 SK-BR-3): 7.03 µM
GI50 ([9]; SK-BR-3, GI=growth inhibition, read-out: GI50 SK-BR-3): 0.242 µM
IC (TGI) ([9]; SK-BR-3, total growth inhibition (cytostatic effect), read-out: TGI SK-BR-3): 0.525 µM
CC50 ([10]; cell killing (cytotoxic effect), read-out: LC50 IGROV): 7.35 µM
GI50 ([10]; GI=growth inhibition, read-out: GI50 IGROV): 0.367 µM
IC (TGI) ([10]; total growth inhibition (cytostatic effect), read-out: TGI IGROV): 1.66 µM
GI50 ([11]; GI=growth inhibition, read-out: GI50 IGROV-ET): 5.65 µM
CC50 ([11]; cell killing (cytotoxic effect), read-out: LC50 IGROV-ET): 7.35 µM
IC (TGI) ([11]; total growth inhibition (cytostatic effect), read-out: TGI IGROV-ET): 7.35 µM
CC50 ([12]; PANC-1, PANC-1, LC=cell killing (cytotoxic effect), read-out: LC50 PANC-1): 7.35 µM
IC (TGI) ([12]; PANC-1, PANC-1, TGI=total growth inhibition (cytostatic effect), read-out: TGI PANC-1): 4.23 µM
GI50 ([12]; PANC-1, GI=growth inhibition, read-out: GI50 PANC-1): 0.978 µM
GI50 ([13]; SK-OV-3, SKOV-3, GI=growth inhibition, read-out: GI50 SKOV-3): 1.79 µM
LC50 (concentration causing 50% net cell killing) ([13]; SK-OV-3, SKOV-3, cell killing (cytotoxic effect), read-out: LC50 SKOV-3): 7.35 µM
IC (TGI) ([13]; SK-OV-3, SKOV-3, total growth inhibition (cytostatic effect), read-out: TGI SKOV-3): 3.9 µM
LC50 (concentration giving 50% net cell killing) [14]: 0.29 µM
GI50 ([15]; GI=growth inhibition, read-out: GI50 H-MEC-1): 0.0242 µM
IC (TGI) ([15]; total growth inhibition (cytostatic effect), read-out: TGI H-MEC-1): 0.0526 µM
